Values belong to the compound of their own block, whether it stands above or below them. The source made the active and inactive calls. No cut-off for these calls is given here.
What was measured:
[1] = target: Histone deacetylase (HDAC1 and HDAC2) (Homo sapiens, UniProt Q13547+Q92769); assay: Inhibition of HDAC1/HDAC2 in human HeLa cell nuclear extract using Boc-Lys(Ac)-AMC as substrate and measured by fluorometric method; type: cell-based
HCT-116 [2] = assay: Antiproliferative activity against human HCT-116 cells after 48 hrs by CCK-8 assay; type: functional, cell-based; settings: HCT-116, 48 h
HeLa = assay: Antiproliferative activity against human HeLa cells after 48 hrs by CCK-8 assay; type: functional, cell-based
MOLT-4 = assay: Antiproliferative activity against human MOLT-4 cells after 48 hrs by CCK-8 assay; type: functional, cell-based; settings: MOLT-4, 48 h
Histone deacetylase 1 = Histone deacetylase 1 (Homo sapiens, UniProt Q13547); assay: Inhibition of HDAC1 in human HeLa cell nuclear extract using Boc-Lys(Ac)-AMC or Boc-Lys(triflouroacetyl)-AMC as substrate incubated for 30 mins and measured by fluorescence assay; type: cell-free
MC-38 = assay: Antiproliferative activity against mouse MC38 cells after 48 hrs by CCK-8 assay; type: functional, cell-based; settings: MC-38, 48 h
HEL = assay: Antiproliferative activity against human HEL cells after 48 hrs by CCK-8 assay; type: functional, cell-based
Histone deacetylase 8 = target: T1, Histone deacetylase 8 (Homo sapiens, UniProt Q9BY41); assay: Inhibition of HDAC8 in human HeLa cell nuclear extract using Boc-Lys(Ac)-AMC or Boc-Lys(triflouroacetyl)-AMC as substrate incubated for 30 mins and measured by fluorescence assay; type: cell-free
T1 sequence (Q9BY41 whole entry): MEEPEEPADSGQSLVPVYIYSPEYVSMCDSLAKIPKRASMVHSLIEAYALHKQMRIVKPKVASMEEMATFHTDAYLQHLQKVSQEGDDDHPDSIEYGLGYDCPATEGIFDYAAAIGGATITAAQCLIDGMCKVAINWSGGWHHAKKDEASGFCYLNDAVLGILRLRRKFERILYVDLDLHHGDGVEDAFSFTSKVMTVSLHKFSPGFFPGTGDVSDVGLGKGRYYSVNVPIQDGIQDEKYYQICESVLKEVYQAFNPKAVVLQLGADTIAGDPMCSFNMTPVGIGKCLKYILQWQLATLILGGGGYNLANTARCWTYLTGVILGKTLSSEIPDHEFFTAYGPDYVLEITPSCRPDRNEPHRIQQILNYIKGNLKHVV

[3] = target: T2, Protein deacetylase HDAC6 (Homo sapiens, UniProt Q9UBN7); assay: Inhibition of HDAC6 in human HeLa cell nuclear extract using Boc-Lys(Ac)-AMC or Boc-Lys(triflouroacetyl)-AMC as substrate incubated for 30 mins and measured by fluorescence assay; type: cell-free
T2 sequence (Q9UBN7 whole entry): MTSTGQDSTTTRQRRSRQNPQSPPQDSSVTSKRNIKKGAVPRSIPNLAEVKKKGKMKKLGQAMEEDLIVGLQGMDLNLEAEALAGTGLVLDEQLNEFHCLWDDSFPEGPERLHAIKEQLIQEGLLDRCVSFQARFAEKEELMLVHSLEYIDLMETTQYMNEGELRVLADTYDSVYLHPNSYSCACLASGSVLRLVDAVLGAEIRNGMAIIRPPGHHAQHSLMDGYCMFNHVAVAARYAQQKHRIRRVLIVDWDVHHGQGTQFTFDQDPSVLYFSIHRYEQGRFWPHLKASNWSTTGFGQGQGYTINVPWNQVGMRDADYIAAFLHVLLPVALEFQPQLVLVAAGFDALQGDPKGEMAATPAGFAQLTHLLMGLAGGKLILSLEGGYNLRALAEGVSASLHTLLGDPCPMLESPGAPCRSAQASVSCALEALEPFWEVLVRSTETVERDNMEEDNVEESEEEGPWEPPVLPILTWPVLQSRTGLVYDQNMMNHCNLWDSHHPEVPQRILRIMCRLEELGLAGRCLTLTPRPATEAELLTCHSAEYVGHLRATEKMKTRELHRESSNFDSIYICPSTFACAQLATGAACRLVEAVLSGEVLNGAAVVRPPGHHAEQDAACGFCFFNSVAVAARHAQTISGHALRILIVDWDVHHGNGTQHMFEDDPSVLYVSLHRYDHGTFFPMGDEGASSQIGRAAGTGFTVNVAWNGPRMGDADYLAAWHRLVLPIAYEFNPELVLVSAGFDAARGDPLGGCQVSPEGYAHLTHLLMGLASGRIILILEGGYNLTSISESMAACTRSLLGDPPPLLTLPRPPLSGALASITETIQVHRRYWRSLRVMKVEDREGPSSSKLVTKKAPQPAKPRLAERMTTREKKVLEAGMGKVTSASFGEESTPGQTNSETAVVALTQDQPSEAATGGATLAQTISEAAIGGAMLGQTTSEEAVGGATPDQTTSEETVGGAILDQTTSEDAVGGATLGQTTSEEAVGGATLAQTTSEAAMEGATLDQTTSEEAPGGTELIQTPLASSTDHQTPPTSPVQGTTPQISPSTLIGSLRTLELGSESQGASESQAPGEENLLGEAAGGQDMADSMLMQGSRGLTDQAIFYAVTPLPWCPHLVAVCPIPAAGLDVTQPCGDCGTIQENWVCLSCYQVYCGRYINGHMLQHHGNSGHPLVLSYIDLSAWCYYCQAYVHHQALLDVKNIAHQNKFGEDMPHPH

K562 = assay: Antiproliferative activity against human K562 cells after 48 hrs by CCK-8 assay; type: functional, cell-based; settings: K562, 48 h
HepG2 = assay: Antiproliferative activity against human HepG2 cells after 48 hrs by CCK-8 assay; type: functional, cell-based; settings: HepG2, 48 h
Calf thymus DNA [4] = assay: Binding affinity to calf thymus DNA at 50 uM incubated for 30 mins and measured by UV-vis absorption spectroscopy; type: nucleic-acid assay; settings: Bos taurus
Calf thymus DNA [5] = assay: Binding affinity to calf thymus DNA at 50 uM incubated for 30 mins and measured by fluorescence spectroscopy; type: nucleic-acid assay; settings: Bos taurus
HCT-116 [6] = assay: Induction of apoptosis in human HCT-116 cells assessed as early apoptotic cells at 1.5 uM incubated for 48 hrs by PI and annexin V-FITC staining based flow cytometry (reference value: 3.4%); type: functional
HCT-116 [7] = assay: Induction of apoptosis in human HCT-116 cells assessed as late apoptotic cells at 1.5 uM incubated for 48 hrs by PI and annexin V-FITC staining based flow cytometry (reference value: 3.4%); type: functional

Histone deacetylase 1, sequence (Q13547 whole entry): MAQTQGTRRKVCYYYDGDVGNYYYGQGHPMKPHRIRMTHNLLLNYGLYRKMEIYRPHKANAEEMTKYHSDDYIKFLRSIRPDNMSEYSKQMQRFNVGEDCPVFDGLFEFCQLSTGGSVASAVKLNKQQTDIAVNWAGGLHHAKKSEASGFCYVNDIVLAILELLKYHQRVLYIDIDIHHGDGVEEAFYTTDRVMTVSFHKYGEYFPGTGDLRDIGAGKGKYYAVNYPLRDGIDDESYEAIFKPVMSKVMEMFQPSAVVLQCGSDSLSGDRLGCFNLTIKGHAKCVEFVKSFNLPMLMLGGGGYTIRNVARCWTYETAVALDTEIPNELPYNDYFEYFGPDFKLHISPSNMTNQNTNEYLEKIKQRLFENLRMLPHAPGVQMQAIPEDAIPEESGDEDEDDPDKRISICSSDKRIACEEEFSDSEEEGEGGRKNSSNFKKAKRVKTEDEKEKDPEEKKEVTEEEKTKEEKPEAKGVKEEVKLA

SMILES: O=C(CCCCOc1ccc(-c2nnc(-c3ccccc3)s2)cc1)NO
- IC50 [1]: 362 nM

SMILES: COc1cc(-c2nnc(-c3ccc(OCCCCC(=O)NO)cc3)s2)cc(OC)c1OC
- IC50 [1]: > 1000 nM

SMILES: O=C(CCCOc1cccc(-c2nnc(-c3ccccc3)s2)c1)NO
- IC50 [1]: > 1000 nM

SMILES: CN1CCN(c2ccc3[nH]c(-c4ccc5[nH]c(-c6ccc(O)cc6)nc5c4)nc3c2)CC1
- Activity (Calf thymus DNA [4]): Active
- Activity (Calf thymus DNA [5]): Active

SMILES: COc1cc(-c2nnc(-c3cccc(OCCCCCC(=O)NO)c3)s2)cc(O)c1OC
- IC50 [1]: > 1000 nM

SMILES: COc1cc(-c2nnc(-c3cccc(OCCCCCCCC(=O)NO)c3)s2)cc(OC)c1OC
- IC50 [1]: 395 nM

SMILES: COc1cc(-c2nnc(-c3ccc(OCCCCCC(=O)NO)cc3)s2)cc(OC)c1OC
- IC50 [1]: > 1000 nM

SMILES: COc1cc(-c2nnc(-c3cccc(OCC(=O)NO)c3)s2)cc(OC)c1OC
- IC50 [1]: > 1000 nM

SMILES: O=C(COc1ccc(-c2nnc(-c3ccccc3Cl)s2)cc1)NO
- IC50 [1]: > 1000 nM

SMILES: COc1cc(-c2nnc(-c3ccc(OCCCCCCC(=O)NO)cc3)s2)cc(OC)c1OC
- IC50 [1]: 537 nM

SMILES: COc1cc(-c2nnc(-c3ccc(OCCCC(=O)NO)cc3)s2)cc(OC)c1OC
- IC50 [1]: > 1000 nM

SMILES: COc1cc(-c2nnc(-c3cccc(OCCCC(=O)NO)c3)s2)cc(OC)c1OC
- IC50 [1]: > 1000 nM

SMILES: COc1cc(-c2nnc(-c3cccc(OCCCCCCC(=O)NO)c3)s2)cc(OC)c1OC
- IC50 [1]: 366 nM

SMILES: O=C(CCCCCCC(=O)Nc1ccccc1)NO [VORINOSTAT]
- Activity (HCT-116 [6]): 5.05%
- Activity (HCT-116 [7]): 5.05%

SMILES: O=C(COc1cccc(-c2nnc(-c3ccccc3)s2)c1)NO
- IC50 [1]: > 1000 nM

SMILES: COc1cc(-c2nnc(-c3ccc(OCC(=O)NO)cc3)s2)cc(OC)c1OC
- IC50 [1]: > 1000 nM

SMILES: COc1cc(-c2nnc(-c3cccc(OCCCCC(=O)NO)c3)s2)cc(OC)c1OC
- IC50 [1]: > 1000 nM

SMILES: COc1cc(-c2nnc(-c3ccc(OCCCCCCCC(=O)NO)cc3)s2)cc(OC)c1OC
- IC50 [1]: > 1000 nM

SMILES: O=C(CCCCCOc1ccc(-c2nnc(-c3ccccc3)s2)cc1)NO
- IC50 [1]: > 1000 nM

SMILES: O=C(COc1ccc(-c2nnc(-c3ccccc3)s2)cc1)NO
- IC50 [1]: > 1000 nM

SMILES: O=C(CCCOc1ccc(-c2nnc(-c3ccccc3)s2)cc1)NO
- IC50 [1]: > 1000 nM

Further lines, with some results ahead:

- IC50 [1]: 538 nM
SMILES: O=C(CCCCCCCOc1cccc(-c2nnc(-c3ccccc3)s2)c1)NO

- IC50 [1]: 168 nM
- IC50 (HCT-116 [2]): 10000 nM
- IC50 (HeLa): 17000 nM
- IC50 (MOLT-4): 2400 nM
- IC50 (Histone deacetylase 1): 168 nM
- IC50 (Histone deacetylase 8): 1520 nM
- IC50 [3]: 30 nM
- IC50 (K562): 7700 nM
- IC50 (HepG2): 21000 nM
SMILES: O=C(CCCCCCOc1cccc(-c2nnc(-c3ccccc3Cl)s2)c1)NO
- IC50 (MC-38): 16000 nM
- IC50 (HEL): 8100 nM

- IC50 [1]: > 1000 nM
SMILES: O=C(CCCCOc1ccc(-c2nnc(-c3ccccc3Cl)s2)cc1)NO

- IC50 [1]: > 1000 nM
SMILES: O=C(CCCCCCCOc1ccc(-c2nnc(-c3ccccc3)s2)cc1)NO

- IC50 [1]: > 1000 nM
SMILES: O=C(CCCOc1cccc(-c2nnc(-c3ccccc3Cl)s2)c1)NO

- IC50 [1]: > 1000 nM
SMILES: O=C(COc1cccc(-c2nnc(-c3ccccc3Cl)s2)c1)NO

- IC50 [1]: 57 nM
- IC50 (HCT-116 [2]): 2900 nM
- IC50 (HeLa): 4900 nM
- IC50 (MOLT-4): 710 nM
- IC50 (Histone deacetylase 1): 19 nM
- IC50 (Histone deacetylase 8): 2390 nM
- IC50 [3]: 185 nM
- IC50 (K562): 3200 nM
- IC50 (HepG2): 2200 nM
SMILES: O=C(CCCCCCOc1cccc(-c2nnc(-c3ccccc3)s2)c1)NO
- IC50 (MC-38): 2400 nM
- IC50 (HEL): 2600 nM

- IC50 [1]: 461 nM
SMILES: O=C(CCCCCCCOc1cccc(-c2nnc(-c3ccccc3Cl)s2)c1)NO

- IC50 [1]: 118 nM
- IC50 (HCT-116 [2]): 2000 nM
- IC50 (HeLa): 1900 nM
- IC50 (MOLT-4): 490 nM
- IC50 (Histone deacetylase 1): 179 nM
- IC50 (Histone deacetylase 8): 3110 nM
- IC50 [3]: 32 nM
- IC50 (K562): 2100 nM
- IC50 (HepG2): 11000 nM
SMILES: O=C(CCCCOc1cccc(-c2nnc(-c3ccccc3)s2)c1)NO
- IC50 (MC-38): 7100 nM
- IC50 (HEL): 570 nM

- IC50 [1]: 656 nM
SMILES: O=C(CCCCOc1cccc(-c2nnc(-c3ccccc3Cl)s2)c1)NO

- IC50 [1]: > 1000 nM
SMILES: O=C(CCCOc1ccc(-c2nnc(-c3ccccc3Cl)s2)cc1)NO

- IC50 [1]: 199 nM
- IC50 (HCT-116 [2]): 20000 nM
- IC50 (HeLa): > 50000 nM
- IC50 (MOLT-4): 3100 nM
- IC50 (Histone deacetylase 1): 82 nM
- IC50 (Histone deacetylase 8): > 10000 nM
- IC50 [3]: 64 nM
- IC50 (K562): 16000 nM
- IC50 (HepG2): > 50000 nM
SMILES: O=C(CCCCCCOc1ccc(-c2nnc(-c3ccccc3)s2)cc1)NO
- IC50 (MC-38): 14000 nM
- IC50 (HEL): > 10000 nM

- IC50 [1]: > 1000 nM
SMILES: O=C(CCCCCOc1ccc(-c2nnc(-c3ccccc3Cl)s2)cc1)NO

- IC50 [1]: > 1000 nM
SMILES: O=C(CCCCCCCOc1ccc(-c2nnc(-c3ccccc3Cl)s2)cc1)NO

- IC50 [1]: 339 nM
SMILES: O=C(CCCCCOc1cccc(-c2nnc(-c3ccccc3Cl)s2)c1)NO

- IC50 [1]: > 1000 nM
SMILES: O=C(CCCCCCOc1ccc(-c2nnc(-c3ccccc3Cl)s2)cc1)NO
